According to US8841271B2, “Oligonucleotide complex compositions and methods of use as gene alteration tools” (The General Hospital Corporation, priority 2004, dated 2014):
Where “and” joins values, the source holds several entries; their conditions need not be identical. Equal values may be shown once. Entries after “also recorded” stand apart in the source; their conditions may differ. In the oligonucleotide strings, read from the 5' end, every base follows the letter of its sugar. An asterisk marks phosphorothioate; unmarked linkages are phosphodiester. Other units and linkages are bracketed, terminal groups are in braces. A string of capitals states the bases alone. m = 2'-O-methyl; r = 2'-OH (RNA); {P} = phosphate

Columns and labels:
Δ508 CFTR mRNA = experiment: RT-PCR, subcloning and sequencing of CFTR mRNA; assay type: cell-based, human; details: mRNA from CF4/CF6 treated Δ508 cells (10 μM), subcloned RT-PCR products
Procedure: Total RNA isolated by Trizol® reagent according to the manufacturer's protocol (Invitrogen, CA) from either WT1 or Δ508 cells treated with or without CF6/CF4 annealed duplex oligonucleotides (final concentration of duplex in reaction mixture 10 μM) was used to perform the RT-PCR assay [Kleppe et al., (1971) J. Mol. Biol. 56, 341-361] in two steps by using a ThermoScript RT-PCR system (GIBCO, BRL). Several sets of primers were used (see CF Table 1). In the first step, total RNA (˜2 μg) was incubated for […] at 55° C. with amplification refractory mutation system (ARMS) [Ferric et al., (1992) Am. J. Hum. Genet. 51, 251-262] reverse mutant (M1) and normal (N1) primers (0.5 μg each) separately for the first-strand synthesis. In a second step, after heating at 94° C. for 5 mM, 35 cycles of PCR were carried out on the samples. PCR cycles were performed first by denaturation at 94° C. for 2 mM, annealing at 62° C. for 1 min, and extension at 72° C. for 2 min, followed by a final extension for 10 mM at 72° C. Two ARMS reverse primers (N1 and M1) [Ferric et al., (1992) Am. J. Hum. Genet. 51, 251-262], and a forward (F1) primer were used (Table 1). Similarly RT-PCR was performed with ARMS PS reverse primer (SCFR) and PS forward primer (SNF1, Table 1). RT-PCR products were separated in 3% agarose gel and subjected to automated DNA sequence analysis. […]

Δ508 cells = experiment: SPQ fluorescence assay of cAMP-stimulated Cl- transport; assay type: cell-based, mouse; details: CF4/CF6 treated Δ508 cells compared with WT1 cells; control Δ508 cells no change
Procedure: (§1) Mouse mammary carcinoma cells (c127i) transfected with human epithelial CFTR wild type (WT1) or Δ508 CFTR cells [Cannello et al., (1994), J. Biol. Chem. 269, 11224-11232; Dechecchi et al., (1993) J. Biol. Chem. 268, 11321-11325] were used for these studies. The transfected c127i cells are high level producers of Δ508 CFTR mRNA. Cells were grown and maintained in Dulbecco's medium (DMEM), supplemented with 10% fetal bovine serum and 1% L-glutamine, as previously reported [Verkman, (1990) Am. J. Physiol. 259, C375-C388].
Cyclic-AMP-stimulated CY transport was also followed by fluorescence changes of cells loaded with the CY sensitive dye 6-methoxy-N-(3-sulfopropyl)quinolinium (SPQ) [Verkman, (1990) Am. J. Physiol. 259, C375-C388]. Briefly, cells were grown to partial confluence on glass coverslips. […] SPQ fluorescence was determined under an oil immersion X20 objective in a Nikon E-800 fluorescence microscope (Tokyo, Japan), with an UV filter (96101C UV-2E/C). […] Pictures were analyzed digitally with the NIH Image 1.62b7 software. SPQ cytoplasmic fluorescence values were normalized between intra-nuclear (considered as zero quenching, i.e. low Cl^−), and extracellular background. Data were expressed as percent fluorescence with respect to time zero, the time when cells were placed in an isotonic saline solution. […]

CFTR protein = experiment: Western blot with antibodies to epitopes upstream and downstream of the Δ508 deletion; assay type: cell-based, human; details: both antibodies same level of protein, no truncated or degraded peptides
Procedure: (§2) Without being limited by any particular mechanism, the hypothesis was tested as to whether base insertion in the treated Δ508 cells has occurred at the RNA level. It was possible that the repair mechanism was carried out instead of/or in addition to, the DNA level, by way of reverse transcription extending back to the genome. This was tested by RT-PCR analysis of DNA from subcloned Δ508 cells originally treated with CF4/CF6. No evidence was obtained that the restored phenotype was carried back to the inheritable DNA genome level was obtained. Western blot analysis was conducted with antibodies targeted to epitopes upstream and downstream of the Δ508 deletion, respectively.

[1] = test system: Δ508CFTR expressing cells; experiment: Whole-cell patch clamp, cAMP-activated whole cell currents; assay type: cell-based, mouse
Procedure: as §1
(§3) Whole-cell and excised inside-out patches were obtained to assess cAMP-PKA dependent anion currents in treated Δ508 cells. Currents and command voltages were obtained and driven. respectively, with a Dagan 3900 amplifier using a 1 gigaohm headstage. The excised patch-clamp configuration was carried out as previously described [Reisin et al., (1994) J. Biol. Chem. 269, 20584-20591]. Single channel data were obtained between ±100 mV in symmetrical Cl^−. Data were further analyzed as previously described [Reisin et al., (1994) J. Biol. Chem. 269, 20584-20591]. The pipette and bathing solution contained, in mmol/L, either: NaCl 140, MgCl2 1.0, KCl 5, and N-2-hydroxyethylpiperazine N′-2-ethanesulfonic acid (HEPES) 10, at pH 7.4, or MgCl2 70, HEPES 10, pH 7.4. The bathing solution also contained 1.0 mmol/L CaCl2. Whenever indicated, the patch-pipette was filled up to at least one third of its height with either MgATP or TrisATP (100 mmol/L, pH 7.4 adjusted with N-methyl-glucamine) as previously reported [Reisin et al., (1994) J. Biol. Chem. 269, 20584-20591]. Experiments were conducted at room temperature. The cAMP stimulatory mixture contained 8-Br-cAMP, isobutyl-methyl-xanthine (IBMX) and forskolin. Final concentrations were 500 μmol/L, […], and 10 μmol/L, respectively. The catalytic subunit of PKA was used at a final concentration of 20 μg/ml. The Cl^− channel blocker, diphenylamine-2-carboxylate (DPC) was kept in a 100-fold stock solution (20 mmol/L) in 50% water/ethanol. DPC was used at a final concentration of 500 μM.
To restore the normal (wild type) phenotype in cells expressing Δ508CFTR, modified oligonucleotides were constructed and their effect on ion transport was assessed in Δ508 cells treated with these constructs. In a first step, a modified oligodeoxyribonucleotide was synthesized, containing phosphorothioate (PS) and PS plus 2′-O-methyl modifications for the central and flanking segments, respectively. This oligonucleotide was designed to hybridize in Watson-Crick base complementarity to the region of Δ508 mRNA where the PS section would be directly opposite the Δ508 mRNA position, flanked 3′- and 5′- by adjacent nucleotides complementary to the Δ508 mRNA. Accordingly, the PS segment would activate endogenous RNase H, and cleave those bases opposite the PS complementary oligonucleotide (10 μM). The insertion of bases then occurs in a second step.
For the second or insertion step, two complementary single strand oligonucleotides, CF4 and CF6 (Table 1, Scheme 1A) were constructed. The annealed CF4/CF6 duplex (10 μM final concentration) was added to the Δ508 CFTR cells after 2 hours incubation, then washout, in the deletion step. Next, following overnight or up to 72 hour incubation in the second (insertion) step, patch clamp examination was conducted on the treated cells.

[2] = test system: Δ508CFTR expressing cells; experiment: Single channel currents in excised inside-out patches (PKA and ATP activation); assay type: cell-based, mouse; details: treated Δ508 cells
Procedure: as §1
Whole-cell and excised inside-out patches were obtained to assess cAMP-PKA dependent anion currents in treated Δ508 cells. Currents and command voltages were obtained and driven. respectively, with a Dagan 3900 amplifier using a 1 gigaohm headstage. The excised patch-clamp configuration was carried out as previously described [Reisin et al., (1994) J. Biol. Chem. 269, 20584-20591]. Single channel data were obtained between ±100 mV in symmetrical Cl^−. Data were further analyzed as previously described [Reisin et al., (1994) J. Biol. Chem. 269, 20584-20591]. The pipette and bathing solution contained, in mmol/L, either: NaCl 140, MgCl2 1.0, KCl 5, and N-2-hydroxyethylpiperazine N′-2-ethanesulfonic acid (HEPES) 10, at pH 7.4, or MgCl2 70, HEPES 10, pH 7.4. The bathing solution also contained 1.0 mmol/L CaCl2. […]

DNA genome of Δ508 cells = experiment: RT-PCR analysis of DNA from subcloned treated Δ508 cells; assay type: cell-based; details: subcloned Δ508 cells originally treated with CF4/CF6
Procedure: as §2

CFTR = experiment: DPC block of cAMP-activated whole cell currents in treated Δ508 cells; assay type: cell-based, human; details: DPC 500 μM
Procedure: as §3, with “The Cl^− channel blocker, diphenylamine-2-carboxylate (DPC) was kept in a 100-fold stock solution (20 mmol/L) in 50% water/ethanol. DPC was used at a final concentration of 500 μM.” left out

[3] = two step treated Δ508 cells, n=24

Compound	UGU insertion in Δ508 mRNA (percentage of subclones showing TGT insertion) (Δ508 CFTR mRNA)	change in SPQ fluorescence in response to cAMP stimulation (Δ508 cells)	CFTR protein made in the presence of the oligonucleotides (CFTR protein)	time to restoration of CFTR channel function ([1]; CF4/CF6 duplex added to Δ508 cells in tissue culture, patch clamping and SPQ quenching)	whole-cell currents in the absence of cAMP stimulation ([1]; CF4/CF6 treated cells, data not shown)	cAMP-activated whole cell conductance ([1]; CF4/CF6 treated Δ508 cells, FIG. 1, untreated Δ508 cells lacked it)	persistence of restored CFTR function ([1]; after cell replication and washing out of the oligonucleotide after a few days incubation)	phenotypic reversion by patch clamp ([1]; one step: CF4/CF6 duplex added without first oligonucleotide treatment step)	increase of whole cell currents after cAMP stimulation ([1]; two step treated Δ508 cells (PS oligonucleotide 10 μM 2 h, washout, then CF4/CF6 10 μM overnight to 72 h), n=24, p<0.01)	whole cell conductance after cAMP stimulation [1, 3]	whole cell conductance before cAMP stimulation [1, 3]	single channel conductance of PKA-activated Cl- channels ([2]; excised inside-out patches)	treated cells displaying PKA and ATP activated Cl- channels ([2]; control Δ508 cells 0/24)	restored phenotype carried back to the inheritable DNA genome level (DNA genome of Δ508 cells)	effect on cAMP-activated currents (CFTR; CF4/CF6 treated Δ508 cells, FIG. 1)	inhibition of cAMP-activated currents (CFTR; two step treated Δ508 cells)
CF4/CF6: 2′-O-methyl RNA/unmodified RNA oligonucleotide duplex of CF4 (SEQ ID NO: 1) and CF6 (SEQ ID NO: 2) (chain 1 mAmUmCmAmUmAmGmGmAmAmAmCmAmCmCmAmAmAmGmAmUmGmAmUmAmUmUmUmUmCmUmUmU; chain 2 {P}-rCrArUrCrUrUrUrGrGrUrG-{P}; listed as Homo sapiens)	20-30%	comparably similar change in SPQ fluorescence	full-length protein was made; also recorded: does not act as an inhibitor of protein synthesis	8 to 18 h	sporadically showed large, DPC inhibitable whole-cell currents	robust cAMP response	restoration of CFTR function was lost	phenotypic reversion was likewise found	243%	2.98±0.68 nS/Cell	0.87±0.16 nS/Cell	10-12 pS and 12 pS	10/12	No evidence		
O=C(O)c1ccccc1Nc1ccccc1 [DPC, diphenylamine-2-carboxylate]															inhibited	> 84%
